# Values quoted from earlier work as cited in US20200229456A1, “Synergistic Formulation Including At Least One Gibberellin Compound and Salicyclic Acid” (Stoller Enterprises, Inc., priority 2018, published 2020).
# Key:
# tomatoes = settings: GA3 at 0.1%, CaCl2 at 1.5%, SA at 0.4 mM
# banana slices = settings: GA3 applied exogenously on banana slices
# Cavendish bananas = settings: 300 ppm GA3 or 4 mM SA, versus other treatments
# Bananas = settings: SA at either 0.5 mM or 1 mM
SMILES,shelf life of tomatoes (tomatoes),postponement of accumulation of sucrose (banana slices),respiration rate or ethylene profile (banana slices),delay in ripening (Cavendish bananas),fruit firmness (Bananas),respiration rates (Bananas),sugar content (Bananas)
"[Ca+2].[Cl-].[Cl-] [CaCl2, calcium chloride]",extended the shelf life,,,,,,
"C=C1C[C@]23C[C@@]1(O)CC[C@H]2[C@@]12C=C[C@H](O)[C@@](C)(C(=O)O1)[C@H]2[C@@H]3C(=O)O [GA3, gibberellic acid]",extended the shelf life,2 days,does not alter,more considerable delay in ripening,,,
"O=C(O)c1ccccc1O [SA, Salicylic acid]",extended the shelf life,,,more considerable delay in ripening,firmer fruits,decrease in respiration rates,lower sugar content
